This note sets out measurements from patent publication US8372971B2, “Heterocyclic compounds and methods of use” (TargeGen, Inc., priority 2004, dated 2013).

The test system of assay [1] is p-MEK and p-ERK levels in HUVECs. Put plainly: Western Blot, inhibition of MAPK pathway in cellular assay (Example 27). Conditions: at 5 uM, 50 ng/ml VEGF or FGF. It is filed as cell-based, human. As to the method: Western Blot: Early passage primary human umbilical vein endothelial cells (HUVECs) were maintained in EGM-2 containing SingleQuots (Cambrex, East Rutherford, N.J.), 10% FBS, 10 mM HEPES, and 50 μg/ml gentamicin. Prior to treatment of the cells with inhibitor, the HUVECs were starved for 18 h by replacing serum-containing complete media with scrum-free and SingleQuot-free media. The starved cells were pre-treated with inhibitors for 60 min at various concentrations (0-20 μM). Next the HUVECs were treated with 50 ng/ml VEGF or FGF (Peprotech, Rocky Hill, N.J.) for 6 min and the cells were immediately washed with ice-cold PBS. Cells were lysed with ice-cold RIPA buffer containing 100 mM Tris pH 7.5, 150 mM NaCl, 1 mM EDTA, 1% deoxycholate, 1% Triton X-100, 0.1% SDS, 2 mM PMSF, one Complete-Mini protease inhibitor tablet (Roche, Indianapolis, Ind.; 1 tablet/7 ml of lysis buffer) and the phophatase inhibitors NaF (500 mM) and orthovanadate (1 mM). The cells were scraped and lysates transferred and centrifuged at 15,000 g for 10 min. Supernatants were transferred to new tubes and protein concentration was quantitated using the BCA protein reagent (Pierce, Rockford, Ill.). Cell lysates containing 20 μg of total protein were separated by 10% SDS-PAGE, transferred to nitrocellulose, and blocked in 5% milk in TBST. Anti phospho-ERK Thr 202/Tyr 204 (Cell Signaling, Beverly, Mass.), anti-phospho-MEK Ser217/221 (Cell Signaling), and c-Raf (BD Biosciences Pharmingen, San Diego, Calif.) used as primary antibodies were detected with horseradish peroxidase-conjugated goat anti-mouse or rabbit secondary antibodies and bands were visualized using the SuperSignal West Pico chemiluminescence reagent system (Pierce) and Kodak X-ray film (Rochester, N.Y.).
In general terms: Immunoblotting shows a protein as a band on a membrane.

A further assay relates to HUVECs. Put plainly: XTT cell viability assay (Example 28). Type of assay: cell-based. The following applies: Homo sapiens, HUVEC, 24-48 hours, read-out: Inhibition of HUVEC cell prolifiration (IC50). As to the method:
XTT assay: HUVECs were seeded at 10,000 cells/well of a tissue culture treated 96-well plate treated with collagen type I and grown overnight in the complete EGM-2 media as described above. The following morning, the inhibitors were serial diluted with DMSO and added to the cells with a final DMSO concentration of 1%. After 24-48 hours cell viability was measured with an XTT assay (Sigma, St. Louis, Mo.). The cells were also photographed to compare morphological differences to the XTT trends observed. Determination of the IC50 values was performed with quantitative software (Prism software package, GraphPad Software, San Diego Calif.).
(In general: Tetrazolium assays rely on reduction of a dye to a coloured formazan, in cell work by metabolically active cells.)

The target of a further assay is T1, recombinant human raf1 (Homo sapiens, UniProt P04049).
T1 construct: purchased Upstate, Lake Placid, N.Y
T1 sequence (P04049 whole entry): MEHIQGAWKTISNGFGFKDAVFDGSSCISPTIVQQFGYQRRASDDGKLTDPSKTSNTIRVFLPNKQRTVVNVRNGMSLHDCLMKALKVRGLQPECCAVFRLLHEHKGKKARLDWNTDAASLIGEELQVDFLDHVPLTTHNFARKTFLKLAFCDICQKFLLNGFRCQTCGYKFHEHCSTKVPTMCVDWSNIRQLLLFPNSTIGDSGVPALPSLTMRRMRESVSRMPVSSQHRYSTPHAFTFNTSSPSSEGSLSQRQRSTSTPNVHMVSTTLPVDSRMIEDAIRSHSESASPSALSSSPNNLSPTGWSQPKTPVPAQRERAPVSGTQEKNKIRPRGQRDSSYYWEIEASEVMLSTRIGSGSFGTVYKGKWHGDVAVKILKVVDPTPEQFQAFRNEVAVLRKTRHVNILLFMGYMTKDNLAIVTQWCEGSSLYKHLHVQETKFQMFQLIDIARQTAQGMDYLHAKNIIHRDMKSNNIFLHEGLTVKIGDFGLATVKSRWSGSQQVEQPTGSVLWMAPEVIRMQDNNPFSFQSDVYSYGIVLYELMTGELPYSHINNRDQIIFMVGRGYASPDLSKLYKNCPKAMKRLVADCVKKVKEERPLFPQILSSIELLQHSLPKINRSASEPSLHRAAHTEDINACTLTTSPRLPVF
Put plainly: Raf1 direct kinase assay (KinaseGlo). Type of assay: biochemical. The following applies: printed in the RAF-MEK column. As to the method:
The ability of compounds of general structure (A) of the present invention to inhibit the kinase activity of Raf1 was evaluated using two methods: a direct and a Raf1-MEK1 assay. In the direct assay, kinase reactions were conducted in 96-well plates by combining recombinant human raf1 (29.4 U/well, Upstate, Lake Placid, N.Y.), ATP (3 μM), myelin basic protein substrate (MBP, 1 mg/ml, Upstate, Lake Placid, N.Y.), and test agents (at concentrations ranging from about 1 nM/l to about 10 μM), in the presence of kinase reaction buffer. […] After reacting for 60 minutes at 30° C., residual ATP was measured using a luciferase-based assay (KinaseGlo, Promega Corp.) as a measure of kinase activity. Data from four wells were then averaged and used to determine IC50 values for the test compounds (Prism software package, GraphPad Software, San Diego Calif.).

In assay [2] the target is T2, raf1 with inactive MEK1 (Raf1-MEK1) (Homo sapiens, UniProt P04049).
T2 construct: purchased Upstate, Lake Placid, N.Y
T2 sequence (P04049 306-648 limits assumed): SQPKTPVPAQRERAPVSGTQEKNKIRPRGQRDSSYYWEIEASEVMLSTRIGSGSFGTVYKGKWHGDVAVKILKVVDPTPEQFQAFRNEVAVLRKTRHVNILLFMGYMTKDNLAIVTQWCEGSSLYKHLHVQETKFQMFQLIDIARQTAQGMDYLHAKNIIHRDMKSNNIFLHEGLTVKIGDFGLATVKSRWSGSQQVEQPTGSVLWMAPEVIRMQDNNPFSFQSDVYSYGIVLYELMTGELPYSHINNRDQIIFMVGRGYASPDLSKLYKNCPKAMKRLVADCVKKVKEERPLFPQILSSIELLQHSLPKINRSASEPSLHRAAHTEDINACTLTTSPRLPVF
Put plainly: Raf1-MEK1 assay (KinaseGlo). Type of assay: biochemical. The following applies: for IC50: Raf-Mek, 3 uM ATP, read-out: RAF-MEK assay (biochemical assay).

Where a name gives a salt, the structure may show the parent alone.

On to `O=C(Nc1nnc2cc(Oc3ccnc(C(=O)NCCN4CCOCC4)c3)ccc2n1)c1ccc(OC(F)(F)F)cc1` [4-[3-(4-Trifluoromethoxy-benzoylamino)-benzo[1,2,4]triazin-7-yloxy]-pyridine-2-carboxylic acid (2-morpholin-4-yl-ethyl)-amide], for which, in assay [1], the “Western Blot” value is recorded as “active at 5 uM”. The IC50 in the assay on HUVECs was found to be 1480 nM.
As for `CNC(=O)c1cc(Oc2ccc3nc(Nc4ccc(Cl)cc4)nnc3c2)ccn1` [4-[3-(4-chloro-phenylamino)-benzo[1,2,4]triazin-7-yloxy]-pyridine-2-carboxylic acid methylamide trifluoroacetate salt], the IC50 at recombinant human raf1 was determined as 77 nM. In addition, in assay [2], the IC50 lay in the range of 10000 to 50000 nM and the window stood at 100%. Moreover, the “Western Blot” value in assay [1] is recorded as “not active at 5 uM”.
Turning to `CNC(=O)c1cc(Oc2ccc3nc(NS(=O)(=O)c4ccccc4C(F)(F)F)nnc3c2)ccn1` [4-[2-(trifluoromethyl-benzenesulfonylamino)-benzo[1,2,4]triazin-7-yloxy]-pyridine-2-carboxylic acid methyl amide trifluoroacetate salt], the “RAF-MEK assay (biochemical assay), result in words” value in assay [2] is reported as “flat”. In addition, the “Western Blot” value in assay [1] is “not active at 5 uM”.
With `CNC(=O)c1cc(Oc2ccc3nc(Nc4ccc(Cl)c(C(F)(F)F)c4)nnc3c2)ccn1` [4-[3-(4-chloro-3-trifluoromethyl-phenylamino)-benzo[1,2,4]triazin-7-yloxy]-pyridine-2-carboxylic acid methylamide trifluoroacetate salt], in assay [2], the IC50 came to 11.6 nM and the window is roughly 20%. The “Western Blot” value in assay [1] was “not active at 5 uM”.
For `CNC(=O)c1cc(Oc2ccc3nc(NC(=O)c4cc(C(F)(F)F)cc(Cl)c4F)nnc3c2)ccn1` [4-[2-fluoro-3-chloro-5-trifluoromethyl-benzoylamino)-benzo[1,2,4]triazin-7-yloxy]-pyridine-2-carboxylic acid methyl amide trifluoroacetate salt] the same measures were 723 nM, roughly 30% and “not active at 5 uM”.
In the case of `CNC(=O)c1cc(Oc2ccc3nc(NS(=O)(=O)c4ccc(Cl)s4)nnc3c2)ccn1` [4-[3-(5-chloro-thiophene-2-sulfonylamino)-benzo[1,2,4]triazin-7-yloxy]-pyridine-2-carboxylic acid methyl amide trifluoroacetate salt], the IC50 in assay [2] is greater than 50000 nM. The “Western Blot” value in assay [1] is “not active at 5 uM”.
For `O=C(Nc1nnc2cc(Oc3ccncc3)ccc2n1)c1ccc(OC(F)(F)F)cc1` [N-[7-(Pyridin-4-yloxy)-benzo[1,2,4]triazin-3-yl]-4-trifluoromethoxy-benzamide], in assay [1], the “Western Blot” value is reported as “not active at 5 uM”. In the assay on HUVECs, the IC50 came to 7380 nM.
Turning to `CNC(=O)c1cc(Oc2ccc3nc(NC(=O)c4cccc(C(F)(F)F)c4)nnc3c2)ccn1` [4-[3-(3-trifluoromethyl-benzoylamino)-benzo[1,2,4]triazin-7-yloxy]-pyridine-2-carboxylic acid methyl amide trifluoroacetate salt], in assay [2], the IC50 turned out to be 655 nM and the window is given as roughly 70%. For the same molecule, the “Western Blot” value in assay [1] is listed as “not active at 5 uM”.
